Laboratory results as given in patent US20240299408A1, “METHODS OF TREATING 4-REPEAT TAUOPATHIES” (Woolsey Pharmaceuticals, Inc., priority 2020, published 2024).
Structures can show the parent of a compound that is named as a salt.

B1: ABBV-8E12: humanized anti-tau monoclonal antibody (antibody, chains of the INN, looked up, V domains shown)
VH: EVKVVESGGGLVQPGGSMKLSCVVSGFTFSNYWVNWVRQAPGKGLEWVAQIRLKSDNYATHYEESVKGRFTISRDDSKSSVYLQMNNLRAEDSGIYYCTNWEDYWGQGTTVTVSS
VL: DIVLTQSPDSLAVSLGERATISCRASQSVSTSRYSYIHWYQQKPGQPPKLLIKYASNLESGVPSRFSGSGSGTDFTLNIHPLEPEDFATYYCHHSWEIPLTFGQGTKLEIK
B2: Gosuranemab: humanized monoclonal antibody that targets N-terminal tau (antibody, chains of the INN, looked up, V domains shown)
VH: EVHLVESGGALVKPGGSLRLSCAASGFSFSKYGMSWVRQAPGKGLEWVATISSSGSRTYYPDSVKGRFTISRDNAKNTLYLQMNSLRAEDTAMYYCSISWDGAMDYWGQGTTVTVSS
VL: DVVMTQSPLSLPVTLGQPASISCKSSQSIVHSNGNTYLEWYLQKPGQSPQLLVYKVSNRFSGVPDRFSGSGSGTDFTLKISRVEAEDVGTYYCFQGSLVPWAFGGGTKVEIK

Tests used:
[1] = in vivo, 1-hydroxy metabolite; cited from earlier work
PSP patients = conditions: cited from earlier work; for effect or benefit in clinical trial in PSP: PSP patients (riluzole: PSP and MSA)
[2] = system: subjects with probable or possible PSP; assay: treatment of probable or possible PSP subjects with fasudil, assessments at six months and one year versus baseline and historical controls; type: in vivo, human

Row | Molecule | effect or benefit in clinical trial in PSP (PSP patients) | other results
1 | O=S(=O)(c1cccc2c(O)nccc12)N1CCCNCC1 [M3] |  | half-life [1]: about 8 hours
2 | O=C(Oc1ccccc1C(=O)O)c1ccccc1O [Salsalate] | failed | 
3 | COC1=C(OC)C(=O)C(C/C=C(\C)CC/C=C(\C)CC/C=C(\C)CC/C=C(\C)CC/C=C(\C)CC/C=C(\C)CC/C=C(\C)CC/C=C(\C)CC/C=C(\C)CCC=C(C)C)=C(C)C1=O [coenzyme Q10] | failed to provide benefit | 
4 | CC[C@H](C)[C@H](NC(=O)[C@H](CO)NC(=O)[C@@H](NC(=O)[C@@H]1CCCN1C(=O)[C@H](C)NC(=O)[C@@H](N)CC(N)=O)C(C)C)C(=O)N1CCC[C@H]1C(=O)N[C@@H](CCC(N)=O)C(=O)O [Davunetide] | not shown not to be effective | 
5 | Nc1nc2ccc(OC(F)(F)F)cc2s1 [riluzole] | failed to demonstrate effects | 
6 | O=c1sn(-c2cccc3ccccc23)c(=O)n1Cc1ccccc1 [tideglusib] | failed to show benefit | 
7 | C=CC1O[C@H]2C[C@H]3OC[C@@]3(OC(C)=O)[C@H]3[C@H](OC(=O)c4ccccc4)[C@]4(O)C[C@H](OC(=O)[C@H](O)[C@H](CC(C)C)NC(=O)OC(C)(C)C)C(C)=C([C@H](OC(C)=O)[C@H](O1)[C@]23C)C4(C)C (stereo partly drawn) [TPI 287] | failed to show any effect | 
8 | [Li] [lithium] |  | tolerability in open-label trial in PSP (PSP patients; open-label trial in PSP): terminated due to poor tolerability
9 | O=S(=O)(c1cccc2cnccc12)N1CCCNCC1 [fasudil, Hexahydro-1-(5-isoquinolinesulfonyl)-1H-1,4-diazepine monohydrochloride hemihydrate] |  | oculomotor and sleep parameters ([2]; fasudil 180 mg/day): improve; PSP-RS increase over a year ([2]; fasudil 180 mg/day (60 mg tid), average is closer to 10): ≤ 5 point
10 | B1 | failed to demonstrate an effect | 
11 | B2 | no effect | 
